Source: US11013702B2, “Midodrine hydrochloride oral solution and uses thereof” (Vertice Pharma, LLC, priority 2017, dated 2021)

Assay: Solubility of midodrine hydrochloride in various solvents and pH values
Format: physicochemical

solubility (0.01N hydrochloric acid, simulated gastric fluid): > 10000 µg/mL
solubility (0.1N hydrochloric acid, simulated gastric fluid): > 10000 µg/mL
solubility (Simulated Gastric Fluid (SGF) pH 1.25): > 10000 µg/mL
solubility (aqueous buffer, Potassium Phosphate Buffer, pH 6.0): > 10000 µg/mL
solubility (potassium phosphate buffer, pH 2.5, aqueous buffer): > 10000 µg/mL
solubility (potassium phosphate buffer, pH 3.5, aqueous buffer): > 10000 µg/mL
solubility (potassium phosphate buffer, pH 4.5, aqueous buffer): > 10000 µg/mL
solubility (potassium phosphate buffer, pH 5.5, aqueous buffer): > 10000 µg/mL
solubility (potassium phosphate buffer, pH 6.8, aqueous buffer): > 10000 µg/mL
solubility (potassium phosphate buffer, pH 7.2, aqueous buffer): > 10000 µg/mL
solubility (potassium phosphate buffer, pH 7.5, aqueous buffer): > 10000 µg/mL
solubility (water): > 10000 µg/mL
Structure (SMILES): COc1ccc(OC)c(C(O)CNC(=O)CN)c1.Cl (stereo not drawn) [Midodrine Hydrochloride, 2-amino-N-[2-(2,5-dimethoxyphenyl) -2-hydroxyethyl]acetamide hydrochloride]
